Target: T1, C32S Grb2 N-SH3 (Homo sapiens, UniProt P62993, C32S)
T1 construct: encoding residues 2–59 of human Grb2; His6 (N); host or cells: E. coli Rosetta DE3 (Novagen)
Test: 1HN,15N-HSQC NMR titration, noncovalent binding
From the text: For quantitative analysis, we have selected a group of 8 well-resolved peaks showing substantial titration effects. The two-dimensional HSQC titration data for these peaks have been fitted using the program TITAN[39] on per-residue basis, as well as collectively (illustrated in Fig. 1D; for complete summary see Fig. S1).
pET-28 vectors for Grb2 N-SH3 (WT and C32S) encoding residues 2–59 of human Grb2 have been purchased from GenScript. The protein additionally containing N-terminal His6-tag was expressed in Rosetta DE3 cells (Novagen) using minimal M9 media. ^15N-NH4Cl and ^13C-glucose supplements have been used for isotope labeling. Protein expression was induced when OD600 reached 0.8. After 16 hours of incubation at 37 °C, cells were harvested, suspended in the standard lysis buffer (containing 2 mM of DTT) and then homogenized by SPEX SamplePrep 6870 Freezer/Mill followed by three rounds of sonication on ice. The sample was purified using Ni-affinity and size-exclusion chromatography (columns GE HisTrap HP and GE Sephacryl S-200 HR).
All measurements were conducted at 25 °C using 500 MHz Bruker Avance III spectrometer equipped with TBI room temperature probe. […] The buffer additionally contained 150 mM NaCl.
The peptide concentration was incremented from 0 to 160 μM in a step of 20 μM and then brought to 240 μM. […] The results were analyzed using the program TITAN[39].

T1 sequence (P62993 2-59 C32S): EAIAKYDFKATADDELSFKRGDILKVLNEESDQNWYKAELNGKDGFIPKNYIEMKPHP

CC(C)[C@H](N)C(=O)N1CCC[C@H]1C(=O)N1CCC[C@H]1C(=O)N1CCC[C@H]1C(=O)N[C@H](C(=O)N1CCC[C@H]1C(=O)N1CCC[C@H]1C(=O)N[C@@H](CCCNC(=N)N)C(=O)N[C@@H](CCCNC(=N)N)C(=O)N[C@@H](CCCNC(=N)N)C(=O)N[C@@H](CCCCNC(=O)CCl)C(=O)O)C(C)C [Sos1-X′]
Kd: 4.9 µM

Source: publication PMC6934455, “Molecular Dynamics model of peptide-protein conjugation: case study of covalent complex between Sos1 peptide and N-terminal SH3 domain from Grb2” (Scientific Reports, 2019)
